Laboratory results from ChEMBL document CHEMBL3351804, “Development of 2-aryl substituted quinazolin-4(3H)-one, pyrido[4,3-d]pyrimidin-4(3H)-one and pyrido[2,3-d]pyrimidin-4(3H)-one derivatives as microsomal prostaglandin E(2) synthase-1 inhibitors” (Bioorg Med Chem Lett, 2014).

How the values were obtained:
Prostaglandin E synthase = target: T1, Prostaglandin E synthase (Homo sapiens, UniProt O14684); assay: Inhibition of mPGES-1 in human whole blood assessed as inhibition of LPS-induced PGE2 production after overnight incubation
T1 sequence (O14684 whole entry): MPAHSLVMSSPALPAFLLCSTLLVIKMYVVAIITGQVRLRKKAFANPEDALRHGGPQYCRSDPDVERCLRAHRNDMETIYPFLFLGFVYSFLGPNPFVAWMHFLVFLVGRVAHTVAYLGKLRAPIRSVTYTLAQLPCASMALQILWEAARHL

[1] = target: T2, Prostaglandin G/H synthase 2 (Homo sapiens) (UniProt P35354); assay: Inhibition of recombinant COX2 (unknown origin) at 10 uM
T2 sequence (whole entry): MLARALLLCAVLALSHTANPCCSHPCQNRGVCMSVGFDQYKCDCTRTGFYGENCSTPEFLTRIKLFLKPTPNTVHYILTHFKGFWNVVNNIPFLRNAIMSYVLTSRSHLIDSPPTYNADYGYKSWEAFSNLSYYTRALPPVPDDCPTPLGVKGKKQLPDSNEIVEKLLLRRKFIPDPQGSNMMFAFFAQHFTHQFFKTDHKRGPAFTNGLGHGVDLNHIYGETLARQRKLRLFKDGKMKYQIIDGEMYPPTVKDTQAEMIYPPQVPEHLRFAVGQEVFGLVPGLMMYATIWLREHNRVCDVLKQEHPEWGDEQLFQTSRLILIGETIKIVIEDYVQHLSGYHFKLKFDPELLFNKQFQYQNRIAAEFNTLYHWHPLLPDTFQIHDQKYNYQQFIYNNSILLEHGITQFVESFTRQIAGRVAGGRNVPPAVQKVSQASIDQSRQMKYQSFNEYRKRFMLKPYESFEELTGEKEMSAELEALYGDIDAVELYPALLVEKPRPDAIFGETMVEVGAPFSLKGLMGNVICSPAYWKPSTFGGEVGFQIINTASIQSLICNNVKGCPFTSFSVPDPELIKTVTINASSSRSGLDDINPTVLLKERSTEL

[2] = target: T3, Prostaglandin E synthase 3 (Homo sapiens) (UniProt Q15185); assay: Inhibition of recombinant cPGES (unknown origin) at 10 uM
T3 sequence (whole entry): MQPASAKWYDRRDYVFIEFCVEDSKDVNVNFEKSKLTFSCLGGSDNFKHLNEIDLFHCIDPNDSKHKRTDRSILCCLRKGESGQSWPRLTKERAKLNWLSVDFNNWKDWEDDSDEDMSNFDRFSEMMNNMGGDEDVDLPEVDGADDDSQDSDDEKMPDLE

[3] = Inhibition of mPGES-1 in guinea pig whole blood assessed as inhibition of LPS-induced PGE2 production after overnight incubation; type: tissue-based; details: Cavia porcellus
[4] = Cmax in Sprague-Dawley rat at 10 mg/kg, po; type: ADME, organism-based; set-up: dose 10 mg/kg, route oral; details: in vivo
[5] = Stability in rat liver microsomes assessed as compound remaining after 60 mins; type: ADME; details: read-out: Stability

CC(C)C(=O)NCc1ccc(Cl)c(-c2nc3cc(-c4ccc(C(F)(F)F)cc4)ncc3c(=O)[nH]2)c1
IC50 (Prostaglandin E synthase): 376 nM | inhibition [1]: 4.87% | inhibition [2]: 18.7% | IC50 [3]: 161 nM | Cmax [4]: 72 ng/mL | remaining at 1 h [5]: 77%
